Assay results reported in PMC8301544, “A randomized, double‐blind, placebo‐ and positive‐controlled crossover study of the effects of durlobactam on cardiac repolarization in healthy subjects” (Clinical and Translational Science, 2021).
Where two headings read alike, the source gives them in different places.

What was measured:
healthy subjects [1] = assay: Safety and tolerability (adverse events); format: in vivo, human; conditions: for serious AEs, discontinuation for AEs, deaths: all treatment groups; for incidence of at least one AE: single dose durlobactam 4 g i.v. or moxifloxacin 400 mg oral
Method: Safety was assessed from vital signs (systolic/diastolic blood pressure, HR, respiratory rate, and body temperature), physical examination, clinical laboratory tests (serum chemistry, hematology, and urinalysis), 12‐lead safety ECGs, and adverse events (AEs).

healthy subjects [2] = assay: Cardiodynamic evaluation, 12-lead 24-h Holter ECG (QTcF, HR, categorical outliers); conditions: for subjects with QTcF greater than 450 ms and less than or equal to 480 ms: single dose durlobactam 4 g i.v. or moxifloxacin 400 mg oral; for mean placebo-corrected ΔHR (ΔΔHR) / placebo-corrected change from baseline QTcF (ΔΔQTcF): durlobactam 4 g i.v.; for placebo-corrected change from baseline QTcF (ΔΔQTcF): mean ± spread (90% CI)
Method: This was a partially double‐blind study in healthy adult subjects, which was conducted as a placebo‐ and active‐controlled, single‐infusion, three‐way crossover study. […] Study treatments were administered in the fasted state on day 1 of each treatment period. A 7 (±2) day washout period occurred between successive treatments. Subjects, investigator, and sponsor were blinded to durlobactam and placebo treatment assignment. Moxifloxacin was administered open‐label.
Variables associated with the primary ECG end point, placebo‐corrected change‐from‐baseline QTcF (ΔΔQTcF), were computed from means of measurements made on multiple replicate ECGs extracted at scheduled timepoints from Holter 12‐lead ECG data. Holter 12‐lead ECGs were read centrally (ERT, Rochester, NY). ECG end points included change‐from‐baseline HR, QTcF, PR, and QRS (ΔHR, ΔQTcF, ΔPR, and ΔQRS); placebo‐corrected change‐from‐baseline HR, PR, and QRS (ΔΔHR, ΔΔPR, and ΔΔQRS); categorical outliers for QTcF, HR, PR, and QRS; and frequency of treatment‐emergent changes of T‐wave morphology and U‐wave presence.
During each treatment period, 12‐lead, 24‐h Holter ECGs were continuously recorded and evaluated by a central ECG laboratory.

[3] = Plasma pharmacokinetics after single dose in healthy subjects (LC-MS/MS, noncompartmental analysis); format: in vivo, human
Method: Moxifloxacin was administered open‐label.
Plasma concentrations less than the lower limit of quantification were reported as 0. Plasma concentrations of durlobactam were determined by validated liquid chromatography with tandem mass spectrometry (LC‐MS/MS) assays operated in the negative ion mode (method number M8351072B) performed at Covance (Salt Lake City, UT). For durlobactam, the quantitation range was 5–5000 ng/ml. Moxifloxacin plasma concentrations were determined by LC‐MS/MS operated in the positive ion mode (method number 180M001.01) performed at Pharmaron ABS (Germantown, PA). The quantitation range was 1–1000 ng/ml.
PK parameters were determined with noncompartmental analysis using Phoenix WinNonlin (version 7.0 or higher), and PK parameters were compared with SAS version 9.3 or higher.

healthy subjects [4] = test system: healthy subjects
Method: The relationship between durlobactam plasma concentration and change‐from‐baseline QTcF (ΔQTcF) was investigated by a linear mixed‐effects modeling approach with a treatment effect‐specific intercept. […] The geometric mean of the individual Cmax values for subjects on the active dose were determined.

[5] = test system: class A, C, and D β-lactamases; conditions: cited from earlier work
[6] = set-up: method as in PMID 32284380; conditions: multiple dose regimen for 11 days, 1 g i.v. dose; cited from earlier work
[7] = single dose, normal renal function; cited from earlier work
[8] = patients with complicated urinary tract infection, durlobactam/sulbactam 1 g every 6 h for 7 days; cited from earlier work
[9] = Single dose study in subjects with varying degrees of renal impairment; format: in vivo, human; conditions: severe renal impairment category (CLcr = 0-15 ml/min)

SMILES: COc1c(N2C[C@@H]3CCCN[C@@H]3C2)c(F)cc2c(=O)c(C(=O)O)cn(C3CC3)c12 [moxifloxacin, reference compound]
- serious AEs, discontinuation for AEs, deaths (healthy subjects [1]): No serious AEs, discontinuation for AEs, or deaths occurred
- incidence of at least one AE (healthy subjects [1]): 22.6%
- subjects with QTcF greater than 450 ms and less than or equal to 480 ms (healthy subjects [2]): 6.5%
- subjects with ΔQTcF greater than 30 ms and less than or equal to 60 ms (healthy subjects [2]; single dose moxifloxacin 400 mg oral): 6.5%
- Cmax ([3]; human, plasma, po, 400 mg, moxifloxacin single 400 mg oral dose, read-out: mean Cmax): 2.18 µg/mL
- Tmax ([3]; human, plasma, po, 400 mg, moxifloxacin single 400 mg oral dose, read-out: time to peak plasma concentration): ~1.9 h
- AUC(0-t) ([3]; human, plasma, moxifloxacin single 400 mg oral dose, read-out: mean AUC0-last): 22.6 µg·h/mL
- geometric mean peak concentration ([3]; moxifloxacin single 400 mg oral dose): 2103.4 ng/mL
- slope of the concentration-QTc relationship (healthy subjects [4]; human, in vivo): 0.0065 ms per ng/ml
- treatment effect-specific intercept (healthy subjects [4]; human, in vivo): 0.4 ms

SMILES: CC1=C[C@@H]2CN(C(=O)N2OS(=O)(=O)O)[C@@H]1C(N)=O [durlobactam]
- β-lactamase inhibition [5]: inhibits class A, C, and D β‐lactamases
- Cmax [6]: 28.1 µg/mL
- Cmax [7]: 27,000 ng/ml
- serious AEs, discontinuation for AEs, deaths (healthy subjects [1]): No serious AEs, discontinuation for AEs, or deaths occurred
- incidence of fatigue (AE) (healthy subjects [1]; durlobactam 4 g i.v., 2 subjects): 6.5%
- incidence of at least one AE (healthy subjects [1]): 19.4%
- Cmax [8]: 39,900 ng/ml
- mean placebo-corrected ΔHR (ΔΔHR) (healthy subjects [2]; 3 h post-start-of-infusion): −2.6 bpm
- mean placebo-corrected ΔHR (ΔΔHR) (healthy subjects [2]; 4 h post-start-of-infusion): −0.2 bpm
- placebo-corrected change from baseline QTcF (ΔΔQTcF) (healthy subjects [2]; 6 h): 1.8 ms
- placebo-corrected change from baseline QTcF (ΔΔQTcF) (healthy subjects [2]; 8 h): 1.8 ms
- placebo-corrected change from baseline QTcF (ΔΔQTcF) (healthy subjects [2]; 24 h): 0.0 ms
- effect on HR (healthy subjects [2]; durlobactam 4 g supratherapeutic dose): no clinically relevant effect on HR
- subjects with QTcF greater than 450 ms and less than or equal to 480 ms (healthy subjects [2]): 3.2%
- estimated Cmax from linear regression of dose normalized Cmax versus creatinine clearance [9]: 60,000 ng/ml
- Vz (volume of distribution) ([3]; durlobactam 4 g single 3-h i.v. infusion, n = 31, mean): 33.6 ± 5.2 L
- Tmax ([3]; durlobactam 4 g single 3-h i.v. infusion, n = 31, mean, after start of infusion): 3.1 ± 0.32 h
- Cmax ([3]; human, plasma, iv, 4 g, durlobactam 4 g single 3-h i.v. infusion, healthy subjects, n = 31, mean, read-out: Cmax): 108 µg/mL
- Tmax ([3]; human, plasma, iv, 4 g, durlobactam 4 g single 3-h i.v. infusion, n = 31, mean, after start of infusion, read-out: Tmax): ~3 h
- Vd ([3]; human, plasma, iv, 4 g, durlobactam 4 g single 3-h i.v. infusion, n = 31, mean, read-out: Vz (volume of distribution)): 33.6 L
- Cmax ([3]; human, plasma, iv, 4 g, durlobactam 4 g single 3-h i.v. infusion, read-out: observed geometric mean Cmax): 106 µg/mL
- AUC(0-inf) ([3]; human, plasma, iv, durlobactam 4 g single 3-h i.v. infusion, n = 31, mean): 413 µg·h/mL
- AUC(0-t) ([3]; human, plasma, iv, durlobactam 4 g single 3-h i.v. infusion, n = 31, mean, read-out: AUC0-24): 413 µg·h/mL
- clearance ([3]; human, plasma, iv, durlobactam 4 g single 3-h i.v. infusion, n = 31, mean, read-out: CL (total body clearance) (converted)): ~165 mL/min
- half-life ([3]; human, plasma, iv, durlobactam 4 g single 3-h i.v. infusion, read-out: mean apparent half-life (converted)): 2.3 h
- fold increase of mean Cmax (4 g dose) above maximum Cmax predicted with a 1 g dose ([3]; patients with normal renal function): ~3.2 fold
- fold increase of mean Cmax (4 g dose) above maximum Cmax predicted with a 1 g dose ([3]; patients with severe renal impairment): ~1.5 fold
- plasma concentration up to which an effect on ΔΔQTcF exceeding 10 ms was excluded (healthy subjects [4]; durlobactam): ~190,000 ng/ml
- effect on ECG parameters including QT interval prolongation (C-QT analysis) (healthy subjects [4]; durlobactam 4 g i.v. over 3 h): no significant effect
- fold of excluded concentration (190,000 ng/ml) over therapeutic plasma concentrations (healthy subjects [4]; durlobactam, planned dose of 1 g): over 3 fold
- treatment effect-specific intercept (healthy subjects [4]; durlobactam, not statistically significant): 0.6 ms
- estimated slope of the plasma concentration-QTc relationship (healthy subjects [4]; durlobactam, not statistically significant, 90% CI -0.0000232 to 0.0000194): −0.0000019 ms per ng/ml
